Assay results from publication PMC9663686, “Proline, hydroxyproline, and pyrrolidone carboxylic acid derivatives as highly efficient but reversible transdermal permeation enhancers” (Scientific Reports, 2022).

Key:
human skin = assay: Theophylline permeation through human skin in Franz diffusion cells with co-applied enhancer; format: in vitro ADME; conditions: 1% enhancer co-applied with 5% TH in 60% PG; for CDERMIS, theophylline concentration in dermis / CEPIDERMIS, theophylline concentration in epidermis: after 48 h permeation, mean ± SEM; for ER, enhancement ratio of theophylline flux (fold increase in flux over control): human skin in vitro
Procedure: The prepared enhancers were applied at 1% in 60% aqueous propylene glycol (PG) to human skin in vitro; 60% PG was used as a negative control. PG was selected for its synergy with amphiphilic enhancers. Each model drug was co-applied with the enhancer at infinite dose.
Donor samples for reversibility and infrared studies contained 1% enhancer in 60% PG. All samples were thoroughly mixed, incubated at 32 °C for 24 h, and, if needed, carefully resuspended before applying on the skin. The effects of the studied enhancers on the solubility of model drugs were assessed as described previously.
The permeation-enhancing potencies of the prepared compounds were evaluated on human skin in Franz diffusion cells. Human skin was slowly thawed, cut into 2 × 2 cm pieces, fixed in Teflon holders with 1-cm^2 circular permeation areas, and mounted into Franz cells epidermal side up. The acceptor compartment (15.9 ± 0.1 ml) was filled with phosphate-buffered saline at pH 7.4 with 0.005% gentamicin (PBS) and stirred at 32 °C throughout the experiment. The skin integrity was checked by electrical impedance (any skin sample with the impedance < 10 kΩ was excluded). Then, 100 µl of a donor sample (infinite dose) was applied to the skin and covered with a glass slide. Acceptor phase samples (300 µl) were collected at predetermined time intervals for 48 h, to reach steady-state and were replaced by the same volume of fresh PBS. […] The drug concentrations were measured by HPLC (see supplementary data).
The flux of the model drug through the skin Jss (µg/cm^2/h) was calculated from the linear region of this plot. The enhancement ratio (ER) was calculated as the ratio of flux with and without an enhancer.
After the permeation experiment, the cells were dismounted, the skin was carefully washed with PBS, and the permeation area of the skin (1 cm^2) was punched off. After heating the skin fragments to 80 °C for 1 min, the epidermis (E) was peeled off the dermis (D), individually weighed and extracted by 1 and 2 ml, respectively, of an extraction solvent (identical to the mobile phase for the drug HPLC analysis, see supplementary data) for 24 h. The drug concentration was measured by HPLC (see supplementary data).

3T3 mouse fibroblasts = assay: MTT cell viability assay, 3T3; format: cell-based; conditions: NIH3T3, 48-h incubation, mean ± SEM, read-out: IC50, 3T3 cells, MTT assay
Text: Next, the in vitro toxicities of the most promising enhancers Pro3 and Pro4, along with the parent Pro2, on spontaneously immortalized human keratinocytes (HaCaT) and Swiss albino mouse embryonic fibroblasts (3T3) were studied (Fig. 3). […] The cellular toxicities were further probed using the 3-(4,5-dimethylthiazol-2-yl)-2,5-diphenyltetrazolium bromide (MTT) uptake assay, based on the transformation of yellow MTT into purple formazan by mitochondrial reductases of living cells. The MTT assay also yielded toxicity values in tens of µM with trends to higher toxicity with a longer acyl chain length (thus also higher lipophilicity) of enhancers (Fig. 3).
Cell viability was determined via 3-(4,5-dimethylthiazol-2-yl)-2,5-diphenyltetrazolium bromide (MTT) and neutral red (NR) uptake assays after 48-h incubation with the enhancers (see Supplementary data for details).
Both cell lines were cultivated in Dulbecco’s modified Eagle’s medium (DMEM, Lonza, Basel, Switzerland) supplemented with 10% heat-inactivated fetal bovine serum (Merck, Darmstadt, Germany), 10 mM HEPES buffer (Merck, Darmstadt, Germany), and 1% penicillin/streptomycin solution (Lonza, Basel, Switzerland) in 75-cm^2 tissue culture flasks (TPP, Trasadingen, Switzerland) at 37°C in a humidified atmosphere of 5% CO2. Subconfluent cells were sub-cultured every 3-4 days.
For toxicity studies, the stock-solutions of studied compounds were prepared in dimethyl sulfoxide (DMSO). […]
After 48-h incubation with the studied enhancer, cell viability was determined via 3-(4,5-dimethylthiazol-2-yl)-2,5-diphenyltetrazolium bromide (MTT) uptake assay based on the transformation of yellow MTT into purple formazan by mitochondrial reductase activity of living cells. […] Afterward, the cell viability was assessed by optical density measurement using a Tecan Infinite 200 M plate reader (Tecan, Grödig, Austria) at λ = 570 nm.
The viability of each experimental group was expressed as the percentage of the untreated controls incubated under the same conditions (100%).

rat skin = conditions: 5% concentration (154 mM), topical; cited from earlier work
[1] = Skin viability after topical enhancer application (TTC reduction test); conditions: human, freshly excised full thickness human skin, 1% in 60% PG for 24 or 48 h, decrease not significant, read-out: viability of treated skin relative to untreated skin
Procedure: Freshly excised full thickness human skin was incubated in Dulbecco’s modified Eagle’s medium (DMEM, Lonza, Verviers, Belgium) supplemented with 10% heat-inactivated fetal bovine serum (Merck, Darmstadt, Germany), and 1% penicillin/streptomycin + 1% amphotericin B solution (Lonza, Verviers, Belgium) at 37 °C in a humidified atmosphere of 5% CO2. Skin fragments were treated with 1% enhancer in 60% PG, 20 µl/cm^2, 60% PG alone or left untreated for 24 or 48 h. Then the skin was washed rinsed with distilled water and gently blotted dry. Skin viability was evaluated using the 2,3,5-triphenyltetrazolium chloride (TTC) reduction test[57]. Punch biopsies of 5 mm diameter were incubated in 1 ml of 1.5% TTC and 3% sodium succinate in phosphate buffered saline at pH 7.4 at 37 °C under nitrogen in the dark. After 1 h, the skin samples were dried and the dark red formazan derivative produced by the mitochondrial enzymes was extracted with 1 ml of 2-methoxyethanol for 12 h. Absorbance was measured at 490 nm using Tecan Infinite 200 M plate reader (Tecan, Grödig, Austria) and corrected using skin samples devitalized by boiling as a negative control. The viability of skin exposed to the different preparations was expressed as a percentage of untreated control skin.

SMILES	CDERMIS, theophylline concentration in dermis (human skin) [µg/mg]	CEPIDERMIS, theophylline concentration in epidermis (human skin) [µg/mg]	ER, enhancement ratio of theophylline flux (fold increase in flux over control) (human skin)	IC50 (3T3 mouse fibroblasts) [µM]	visible changes in rat skin after topical application (rat skin)	viability at 1 % [1] [%]
CCCCCCCCCCCCOC(=O)C1CCCN1C(C)=O (stereo not drawn) [Pro2, N-acetyl proline dodecyl ester]	0.37 ± 0.02	1.04 ± 0.11	28	92.4 ± 2.82	did not cause any visible changes in rat skin	–
CCCCCCCCCCCCOC(=O)C1CCCN1C(=O)CC (stereo not drawn) [Pro3]	0.32 ± 0.03	1.11 ± 0.17	31	84.4 ± 1.5	–	≥ 92
CCCCCCCCCCCCOC(=O)C1CCCN1C(=O)CCC (stereo not drawn) [Pro4]	0.25 ± 0.01	0.83 ± 0.08	25	63.9 ± 1.91	–	≥ 92
